ChEMBL document CHEMBL1201862, “PubChem BioAssay data set” (2004)
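Values below derive from 48-hour exposures of cells grown in 96-well plates, with endpoints linearly interpolated between the two concentrations bracketing the appropriate inhibition level. At the GI50, growth is halved.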 Calls of active or inactive are those of the source. Rule as the data show it: active = GI50 up to about 1.1 µM and inactive = higher.

Columns and labels:
Assay in all cases: NCI-60 cell line screen, 48 h
NCI/ADR-RES = tested on: NCI/ADR-RES
MDA-MB-435 = tested on: MDA-MB-435
HT-29 = tested on: HT-29
OVCAR-8 = tested on: OVCAR-8
HL-60 = tested on: HL-60
RPMI-8226 = tested on: RPMI-8226
TK-10 = tested on: TK-10
Hs-578T = tested on: Hs-578T
NCI-H226 = tested on: NCI-H226
SF-268 = tested on: SF-268
OVCAR-3 = tested on: OVCAR-3
SNB-19 = tested on: SNB-19
786-0 = tested on: 786-0
IGROV-1 = tested on: IGROV-1
RXF 393 = tested on: RXF 393
SK-MEL-28 = tested on: SK-MEL-28
MDA-MB-231 = tested on: MDA-MB-231
HCT-15 = tested on: HCT-15
LOX IMVI = tested on: LOX IMVI

| SMILES | GI50 (NCI/ADR-RES) | GI50 (MDA-MB-435) | GI50 (HT-29) | GI50 (OVCAR-8) | GI50 (HL-60) | GI50 (RPMI-8226) | GI50 (TK-10) | GI50 (Hs-578T) | GI50 (NCI-H226) | GI50 (SF-268) | GI50 (OVCAR-3) | GI50 (SNB-19) | GI50 (786-0) | GI50 (IGROV-1) | GI50 (RXF 393) | GI50 (SK-MEL-28) | GI50 (MDA-MB-231) | GI50 (HCT-15) [µM] | GI50 (LOX IMVI) |
| --- | --- | --- | --- | --- | --- | --- | --- | --- | --- | --- | --- | --- | --- | --- | --- | --- | --- | --- | --- |
| CN(C)/N=N/c1ccc2[nH]c(=O)[nH]c2c1 | > 100 µM (inactive) | > 100 µM (inactive) | > 100 µM (inactive) | > 100 µM (inactive) | 19.2 µM (inactive) | > 100 µM (inactive) | > 100 µM (inactive) | > 100 µM (inactive) | > 100 µM (inactive) | > 100 µM (inactive) | > 100 µM (inactive) | > 100 µM (inactive) | > 100 µM (inactive) | > 100 µM (inactive) | > 100 µM (inactive) | > 100 µM (inactive) | > 100 µM (inactive) | > 100 | > 100 µM (inactive) |
| CCCCC1(O)CC2CC1C(C)C2(C)C (configuration not stated) | > 100 µM (inactive) | > 100 µM (inactive) | > 100 µM (inactive) | > 100 µM (inactive) | 21.5 µM (inactive) | 54.6 µM (inactive) | > 100 µM (inactive) | 84.5 µM (inactive) | > 100 µM (inactive) | > 100 µM (inactive) | > 100 µM (inactive) | > 100 µM (inactive) | > 100 µM (inactive) | > 100 µM (inactive) | > 100 µM (inactive) | > 100 µM (inactive) | > 100 µM (inactive) | > 100 | > 100 µM (inactive) |
| CC(C)(C)c1ccc(O)c(Br)c1 | > 100 µM (inactive) | > 100 µM (inactive) | > 100 µM (inactive) | > 100 µM (inactive) | 36.6 µM (inactive) | > 100 µM (inactive) | > 100 µM (inactive) | > 100 µM (inactive) | > 100 µM (inactive) | > 100 µM (inactive) | > 100 µM (inactive) | > 100 µM (inactive) | > 100 µM (inactive) | 19.1 µM (inactive) | 34.1 µM (inactive) | > 100 µM (inactive) | > 100 µM (inactive) | > 100 | > 100 µM (inactive) |
| C=C(C(=O)O)C1CCC(CC/C=C(\C)CC/C=C(\C)CCC=C(C)C)CO1 (configuration not stated) | 27.1 µM (inactive) | 18 µM (inactive) | 11.7 µM (inactive) | 18.8 µM (inactive) | 4.01 µM (inactive) |  | 23 µM (inactive) | 12 µM (inactive) | 0.0723 µM (active) | 28.2 µM (inactive) |  | 13.6 µM (inactive) | 11 µM (inactive) | 18.5 µM (inactive) | 12.4 µM (inactive) | 14.3 µM (inactive) | 42.7 µM (inactive) | 13 | 12.2 µM (inactive) |
| Cc1nc2ccc(Cl)cc2c2c1CCN2c1ccc(F)cc1 | 13 µM (inactive) | 7.05 µM (inactive) | 4.94 µM (inactive) | 22.5 µM (inactive) | 17.1 µM (inactive) | 8.24 µM (inactive) | 18.1 µM (inactive) | 26.3 µM (inactive) | 16.2 µM (inactive) | 58.3 µM (inactive) | 21.8 µM (inactive) | 33.1 µM (inactive) | 11.8 µM (inactive) | 9.42 µM (inactive) | 17.1 µM (inactive) | 20 µM (inactive) | 7.48 µM (inactive) | 36 | 8.73 µM (inactive) |
| c1ccc([P+](c2ccccc2)(c2ccccc2)c2ccc([P+](c3ccccc3)(c3ccccc3)c3ccccc3)cc2)cc1 | > 100 µM (inactive) | 49.5 µM (inactive) | 45.8 µM (inactive) | 59.6 µM (inactive) | 16 µM (inactive) | > 100 µM (inactive) | 60.7 µM (inactive) | 31.6 µM (inactive) | 65.5 µM (inactive) | 57.4 µM (inactive) | 48.2 µM (inactive) | 54.1 µM (inactive) | > 100 µM (inactive) | 59.7 µM (inactive) | 34.8 µM (inactive) | > 100 µM (inactive) | > 100 µM (inactive) | > 100 | 34.3 µM (inactive) |
